From publication PMC7370999, “The Neighboring Subunit Is Engaged to Stabilize the Substrate in the Active Site of Plant Arginases” (Frontiers in Plant Science, 2020)

Experiments:
AtARGAH1 [1] = target: T1, AtARGAH1 (Arabidopsis thaliana, UniProt P46637); test: X-ray crystal structure, […] A; type: binding; details: product of arginine hydrolysis before crystal growth (50 mM L-arginine, 50 mM L-glutamic acid); binuclear Mn2+; active site, completed by loop L2* of neighbouring subunit
T1 construct: gene ARGAH1; starts at codon 25 (signal peptide removed), ends at residue 342; N-terminal His6-tag cut by TEV (vector pMCSG68); E. coli BL21 Gold; hexamer, calculated 209 kDa
T1 sequence (P46637 25-342): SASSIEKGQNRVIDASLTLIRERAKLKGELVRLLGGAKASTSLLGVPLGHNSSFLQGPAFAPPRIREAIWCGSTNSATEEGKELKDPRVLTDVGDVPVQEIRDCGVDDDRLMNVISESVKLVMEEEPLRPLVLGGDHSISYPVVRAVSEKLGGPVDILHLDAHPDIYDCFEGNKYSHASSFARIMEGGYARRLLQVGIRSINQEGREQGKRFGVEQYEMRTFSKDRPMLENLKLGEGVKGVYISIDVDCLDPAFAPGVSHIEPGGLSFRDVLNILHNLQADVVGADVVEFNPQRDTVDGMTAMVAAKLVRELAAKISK

AtARGAH1 [2] = target: T1, AtARGAH1; test: turnover to ornithine during crystallization, seen in crystal structure; type: biochemical; details: 50 mM L-arginine in crystallization solution; Mn2+ enzyme
MtARGAH = target: T2, MtARGAH (Medicago truncatula, UniProt G7JFU5); test: as above; type: biochemical; details: 50 mM L-arginine in cocrystallization; Mn2+ enzyme
T2 construct: gene ARGAH; full-length, 338 residues incl. predicted 15-residue signal peptide; N-terminal His6-tag cut by TEV (vector pMCSG68); E. coli BL21 Gold; hexamer, theoretical 224 kDa
T2 sequence (G7JFU5 1-338): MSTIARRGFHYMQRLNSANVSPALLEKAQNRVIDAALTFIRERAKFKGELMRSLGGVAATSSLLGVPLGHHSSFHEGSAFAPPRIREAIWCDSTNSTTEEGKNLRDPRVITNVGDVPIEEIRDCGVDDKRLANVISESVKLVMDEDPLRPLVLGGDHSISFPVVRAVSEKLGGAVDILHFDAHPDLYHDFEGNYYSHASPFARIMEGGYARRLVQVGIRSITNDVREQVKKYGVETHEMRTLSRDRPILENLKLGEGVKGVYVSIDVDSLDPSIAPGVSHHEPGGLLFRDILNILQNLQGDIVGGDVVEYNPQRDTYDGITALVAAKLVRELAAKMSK

Compound	X-ray crystal structure, 2.25 A (AtARGAH1 [1])	turnover to ornithine during crystallization, seen in crystal structure (AtARGAH1 [2])	turnover to ornithine during crystallization, seen in crystal structure (MtARGAH)
NCCC[C@H](N)C(=O)O [ornithine]	Structures of AtARGAH1-ORN and MtARGAH-ORN with the reaction product, ornithine, were obtained		
N=C(N)NCCC[C@H](N)C(=O)O [L-arginine]		obtained as a result of in vitro arginine hydrolysis	obtained as a result of in vitro arginine hydrolysis
